The text below walks through data of patent publication US20260158017A1, “KIF18A INHIBITOR” (WIGEN BIOMEDICINE TECHNOLOGY (SHANGHAI) CO., LTD., priority 2021, published 2026).

The test system of one test is HCT116 cells. Briefly: In vitro anti-proliferative activity against HCT116 cells (intracellular ATP content, 72 h). Format: cell-based. The settings on record: for IC50: Homo sapiens, HCT-116, 72 h after dosing. As for the experimental part:
Biological Example 3. In Vitro Anti-Proliferative Activity of the Compounds of the Present Invention Against HCT116 Cells
HCT116 cells were seeded on a 384-well plate at 3000 cells/well. After overnight adherence culture, DMSO or the compounds serially 1:5-diluted from 5 μM were added. The viability of the cells was assessed 72 h after dosing by measuring the intracellular ATP content. The inhibition percentages of viable cells by the compounds were calculated by comparing with the DMSO group, and the IC 50 values were also calculated.

Test [1] concerns HT29 subcutaneous xenograft tumor. Briefly: In vivo pharmacodynamic study, mouse HT29 subcutaneous xenograft tumor model. The settings on record: for Tumor volume on day 1 of treatment / Tumor volume on day 28 of treatment / TGI (tumor growth inhibition): 80 mg/kg intragastric once daily; for Tumor volume on day 1 of treatment: baseline day 1; for TGI (tumor growth inhibition): day 28 vs day 1. The arrangement: species or system BALB/c nude mice. How it is done: Biological Example 4. In Vivo Pharmacodynamic Study-Mouse HT29 Subcutaneous Xenograft Tumor Model
BALB/c nude mice were inoculated subcutaneously with 5×10^6 HT29 cells on the left dorsal side. After the tumors grew to 100-150 mm^3, the mice were randomly divided into the following groups for intragastric administration once daily: group 1: vehicle control group; group 2: compound 661 (80 mg/kg); group 3: compound 669 (80 mg/kg); group 4: compound 677 (80 mg/kg); group 5: compound 714 (80 mg/kg); group 6: compound 727 (80 mg/kg); group 7: compound 740 (80 mg/kg); and group 8: AMG650 (80 mg/kg). The tumor volume was measured twice weekly and at the end of treatment.

Another test concerns HT-29 cells. Briefly: In vitro anti-proliferative activity against HT-29 cells (intracellular ATP content, 72 h). Format: cell-based. The settings on record: Homo sapiens, 72 h after dosing. How it is done: Biological Example 2. In Vitro Anti-Proliferative Activity of the Compounds of the Present Invention Against HT-29 Cells
HT-29 cells were seeded on a 384-well plate at 3000 cells/well. After overnight adherence culture, DMSO or the compounds serially 1:5-diluted from 5 μM were added. The viability of the cells was assessed 72 h after dosing by measuring the intracellular ATP content. The inhibition percentages of viable cells by the compounds were calculated by comparing with the DMSO group, and the IC50 values were also calculated.

Test [2] has as its system Histone H3 Ser10 sites in HT29 cells. Briefly: Phosphorylation assay of histone H3 Ser10 sites in HT29 cells (immunofluorescence assay). Format: cell-based. To be noted: Homo sapiens, HT-29, 6 h after addition, FITC/DAPI ratio. How it is done:
Biological Example 5. Phosphorylation Assay of Histone H3 Ser10 Sites in HT29 Cells (Immunofluorescence Assay)
HT29 cells were seeded in a 96-well plate (Fisher 160376) at 8000 cells/well. The next day, the serially diluted compounds were added. 6 h after the addition of the compounds, the cells were washed once with 1×PBS, immobilized with 4% PFA for 15 min, further washed three times with 1×PBS, and permeabilized with 0.02% Triton-X100 for 10 min. A blocking buffer was then added for blocking for 15-30 min, and 1:3000-diluted primary antibodies (Phospho-Histone H3 (Ser10) (D7N8E) XP® Rabbit mAb #53348) were added. The plate was placed at 4° C. overnight. The next day, the cells were washed three times with 1×PBS, and 1:1000-diluted secondary antibodies (Fluorescein (FITC)-conjugated Affinipure Goat Anti-Rabbit IgG (H+L)) were added. The cells were incubated in the dark for 1-2 h and washed three times with 1×PBS. The nuclei were stained with DAPI, and after the staining was completed, photographs were taken using an MD ImageXpress Pico personal high-content imaging analysis system. The ratio of phosphorylation (FITC/DAPI) at H3 Ser10 sites in HT29 cells was quantified. To evaluate the effects of the compounds on the mitosis phase of HT29 cells, the EC50 values of the compounds were calculated.

Test [3] deals with T1, Recombinant human KIF18A (1-467His-tagged) protein (Homo sapiens, UniProt Q8NI77).
T1 construct: Recombinant human KIF18A (1-467His-tagged) protein; His; made in house
T1 sequence (Q8NI77 1-467): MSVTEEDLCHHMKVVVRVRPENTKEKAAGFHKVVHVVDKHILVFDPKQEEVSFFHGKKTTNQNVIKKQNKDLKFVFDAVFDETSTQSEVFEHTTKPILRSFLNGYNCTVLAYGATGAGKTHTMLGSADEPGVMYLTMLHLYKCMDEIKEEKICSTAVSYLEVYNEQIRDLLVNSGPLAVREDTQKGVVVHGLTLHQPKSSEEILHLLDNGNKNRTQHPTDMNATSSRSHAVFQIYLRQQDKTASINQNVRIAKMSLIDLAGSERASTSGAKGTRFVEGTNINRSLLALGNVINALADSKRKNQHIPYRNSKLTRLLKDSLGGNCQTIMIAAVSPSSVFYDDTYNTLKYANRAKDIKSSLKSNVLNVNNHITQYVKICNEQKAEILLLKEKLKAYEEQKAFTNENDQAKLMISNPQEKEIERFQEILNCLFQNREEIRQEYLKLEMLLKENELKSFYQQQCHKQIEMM
T1 sequence (P02550 whole entry partner): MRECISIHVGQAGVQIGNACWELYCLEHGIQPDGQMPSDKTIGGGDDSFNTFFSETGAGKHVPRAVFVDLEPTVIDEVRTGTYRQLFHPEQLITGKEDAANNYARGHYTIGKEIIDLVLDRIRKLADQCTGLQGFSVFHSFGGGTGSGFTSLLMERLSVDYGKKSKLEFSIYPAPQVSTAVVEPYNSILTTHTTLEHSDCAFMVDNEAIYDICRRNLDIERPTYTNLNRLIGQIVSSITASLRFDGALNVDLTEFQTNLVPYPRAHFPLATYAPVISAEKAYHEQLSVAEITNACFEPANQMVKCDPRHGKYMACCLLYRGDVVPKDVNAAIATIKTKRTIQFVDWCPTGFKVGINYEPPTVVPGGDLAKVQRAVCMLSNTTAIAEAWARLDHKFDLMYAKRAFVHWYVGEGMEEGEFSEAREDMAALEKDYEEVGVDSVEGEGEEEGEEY
T1 sequence (P02554 whole entry partner): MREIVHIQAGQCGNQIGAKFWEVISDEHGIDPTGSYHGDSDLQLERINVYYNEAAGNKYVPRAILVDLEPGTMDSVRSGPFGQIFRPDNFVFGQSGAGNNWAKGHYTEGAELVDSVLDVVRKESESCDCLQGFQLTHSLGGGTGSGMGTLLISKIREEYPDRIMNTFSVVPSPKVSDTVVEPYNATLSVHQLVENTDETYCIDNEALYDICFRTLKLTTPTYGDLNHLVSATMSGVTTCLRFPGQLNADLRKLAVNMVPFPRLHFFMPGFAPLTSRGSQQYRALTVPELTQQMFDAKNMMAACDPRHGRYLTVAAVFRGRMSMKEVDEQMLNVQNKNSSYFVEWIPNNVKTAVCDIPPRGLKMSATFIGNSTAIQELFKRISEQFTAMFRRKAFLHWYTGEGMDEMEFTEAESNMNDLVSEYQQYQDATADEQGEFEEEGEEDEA
Briefly: KIF18A enzyme assay (microtubule-stimulated ATPase activity, ADP-Glo). Type of test: biochemical. The settings on record: 30 nM KIF18A, 75 μM ATP, 30 μg/mL pig microtubules; read-out: Inhibitory activity against KIF18A IC50. The gist of the method: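 Buffer 15 mM Tris pH 7.5, 10 mM MgCl2, 0.01% Pluronic F-68, 1 μM paclitaxel, 30 μg/mL pig microtubules; reactions at room temperature. IC50 from inhibition relative to DMSO.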
A general note: ADP-Glo first removes unused ATP, then detects ADP through luciferase.

The structures appear in SMILES notation. Some results are limits rather than exact numbers.

In the case of `Cc1cc(NC(=O)c2ccc(NS(=O)(=O)CCO)cc2N2CCC3(CC2)CC3)nc(N2CCC(F)(F)CC2)n1` [AMG650, reference compound], in the test on HCT116 cells, the “Anti-proliferative activity against HCT116 cells (in words)” value was “neither the compounds of the present invention nor AMG650 have anti-proliferative activity” and the IC50 is greater than 10 µM. Also, in test [1], the “Tumor volume on day 1 of treatment” value amounted to 121 mm^3, the “Tumor volume on day 28 of treatment” value was determined as 649 mm^3 and the “TGI (tumor growth inhibition)” value is 64%. Moreover, half-maximal inhibition in the test with HT-29 cells (IC50) required 0.109 µM. Moreover, in test [2], the EC50 is 0.0523 µM.

`O=C(Nc1ccc([N+](=O)[O-])c(N2CCC(F)(F)CC2)n1)c1ccc(NS(=O)(=O)CCO)cc1N1CCC2(CC1)CC2` [Compound 65]: the IC50 with HCT116 cells is greater than 10 µM; in test [3], no more than 0.1 µM; in the test with HT-29 cells it was 0.0553 µM. For the same molecule, the EC50 in test [2] amounted to 0.0455 µM.

As for `O=C(Nc1ccc(NS(=O)(=O)CCO)cc1N1CCC2(CC1)CC2)c1ccc([N+](=O)[O-])c(N2CCC(F)(F)CC2)n1` [Compound 161], the IC50 in the test on HCT116 cells was greater than 10 µM; in test [3], no more than 0.1 µM; in the test with HT-29 cells, 0.0661 µM. The EC50 in test [2] worked out at 0.0264 µM.

For `COc1ccc(NC(=O)c2ccc(NS(=O)(=O)CCO)cc2N2CCC3(CC2)CC3)nc1N1CCC(F)(F)CC1` [Compound 257], the values for the IC50 (with HCT116 cells; in test [3]; in the test with HT-29 cells) were greater than 10 µM, no more than 0.1 µM and 0.0111 µM, respectively. The EC50 in test [2] is 0.0084 µM.

Regarding `COc1ccc(C(=O)Nc2ccc(NS(=O)(=O)CCO)cc2N2CCC3(CC2)CC3)nc1N1CCC(F)(F)CC1` [Compound 321], the results for the IC50 (in the test with HCT116 cells; in test [3]; in the test on HT-29 cells) were greater than 10 µM, no more than 0.1 µM and 0.0593 µM, respectively. Moreover, the EC50 in test [2] amounted to 0.0158 µM.

As to `COc1ccc(C(=O)Nc2cnc(NS(=O)(=O)CCO)cc2N2CCC3(CC2)CC3)nc1N1CCC(F)(F)CC1` [Compound 353], the IC50 in the test on HCT116 cells is greater than 10 µM; in test [3] it was no more than 0.1 µM; in the test with HT-29 cells it was 0.0746 µM. The EC50 in test [2] came to 0.0422 µM.

On to `COc1ccc(NC(=O)c2ccc(NS(=O)(=O)CCOC(C)=O)cc2N2CCC3(CC2)CC3)nc1N1CCC(F)(F)CC1` [Compound 661], for which the 50% inhibitory concentration (IC50) in the test on HCT116 cells is greater than 10 µM. Further, in test [1], the “Tumor volume on day 1 of treatment” value is 121 mm^3, the “Tumor volume on day 28 of treatment” value worked out at 704 mm^3 and the “TGI (tumor growth inhibition)” value is on record as 61%. Moreover, in the test on HT-29 cells, the IC50 came out at 0.0258 µM. Also, the EC50 in test [2] worked out at 0.0237 µM.

Turning to `COc1ccc(NC(=O)c2ccc(NS(=O)(=O)CCOC(=O)C(C)C)cc2N2CCC3(CC2)CC3)nc1N1CCC(F)(F)CC1` [Compound 663], the IC50 in the test with HCT116 cells was greater than 10 µM; in the test with HT-29 cells, 0.035 µM. Moreover, in test [2], the EC50 was 0.0283 µM.

Take `COc1ccc(NC(=O)c2ccc(NS(=O)(=O)CCOC(=O)[C@@H](N)C(C)C)cc2N2CCC3(CC2)CC3)nc1N1CCC(F)(F)CC1` [Compound 714]: in test [1], the “Tumor volume on day 1 of treatment” value came out at 121 mm^3, the “Tumor volume on day 28 of treatment” value stood at 424 mm^3 and the “TGI (tumor growth inhibition)” value came to 80%. Further, the “Inhibitory effect on HT29 mouse subcutaneous xenograft tumor (in words)” value in test [1] (80 mg/kg, comparison with AMG650) is reported as “stronger inhibitory effects”. The EC50 in test [2] was 0.0392 µM.

The IC50 is the concentration that gives 50% inhibition. As a reminder, the EC50 is the concentration needed to bring the measured effect to its halfway point.
